Source: publication PMC12007285 (Microbial Cell Factories, 2025)
Values belong to the compound of their own block, whether it stands above or below them.

Legend:
[1] = test system: RsNpcB (reductase component of two-component p-nitrophenol monooxygenase RsNcpAB); assay: NADH/NADPH oxidation at […] nm; assay type: biochemical, Rhodococcus sp. 21391; settings: 50 mM Tris–HCl pH 7.5, 25 °C
[2] = molecular target: p-nitrophenol monooxygenase oxidizing component RsNpcA (Rhodococcus sp. 21391) (UniProt Q6F4M8); assay: SEC

Compound: Cc1cc2nc3c(=O)[nH]c(=O)nc-3n(C[C@H](O)[C@H](O)[C@H](O)COP(=O)(O)OP(=O)(O)OC[C@H]3O[C@@H](n4cnc5c(N)ncnc54)[C@H](O)[C@@H]3O)c2cc1C [FAD]
Km ([1]; 200 μM NADH, FAD varied 0.2–1.0 μM): 0.11 ± 0.02 µM

Compound: Cc1cc2nc3c(=O)[nH]c(=O)nc-3n(C[C@H](O)[C@H](O)[C@H](O)COP(=O)(O)O)c2cc1C [FMN]
Km ([1]; 200 μM NADH, FMN varied 0.2–1.0 μM): 0.02 ± 0.007 µM

Compound: NC(=O)C1=CN([C@@H]2O[C@H](COP(=O)(O)OP(=O)(O)OC[C@H]3O[C@@H](n4cnc5c(N)ncnc54)[C@H](O)[C@@H]3O)[C@@H](O)[C@H]2O)C=CC1 [NADH]
Km ([1]; 20 μM FAD, NADH varied 20–220 μM): 45.5 ± 10.8 µM

Now from value to compound:

Km ([1]; 20 μM FAD, NADPH varied 20–220 μM): 16.4 ± 4.62 µM
Compound: NC(=O)C1=CN([C@@H]2O[C@H](COP(=O)(O)OP(=O)(O)OC[C@H]3O[C@@H](n4cnc5c(N)ncnc54)[C@H](OP(=O)(O)O)[C@@H]3O)[C@@H](O)[C@H]2O)C=CC1 [NADPH]

stoichiometry N [2]: 4
Compound: p-nitrophenol monooxygenase oxidizing component RsNpcA (from UniProt Q6F4M8 1-528) (enzyme)
